Laboratory results: patent publication US20130079383A1, “Lipid Compounds Targeting VLA-4” (ARROWHEAD RESEARCH CORPORATION, priority 2011, published 2013)
Structures can show the parent of a compound that is named as a salt.

biological target: T1, VLA-4 (Homo sapiens, UniProt P05556+P13612); test: VLA-4/VCAM binding (adhesion) assay in Jurkat cells; assay type: cell-based; conditions: Jurkat cells activated with 0.5 mM Mn2+, VCAM-1-coated plates, 45 min at 37° C.
T1 construct: Jurkat cells express high levels of VLA-4 on their membrane surface; host or cells: Jurkat Clone E6-1
Method: The following adhesion assay has been reported previously and used in this invention with minor modification. See U.S. Pat. Nos. 6,229,011 and 6,380,387 both of which are incorparated herein by reference in their entirety. […] Each assay was conducted in a 96-well plate with VCAM-1 used as the counter ligand for the cells (i.e., VCAM-1 was bound to the surface of the wells). More specifically, 96-well high-binding F96 Maxisorp immuno microtiter plates (Nunc) were coated overnight with 25 ng/well of VCAM-1. On the day of the experiment, plates were blocked for 1 h with PBS buffer containing 1% nonfat dry milk to eliminate nonspecific binding. The plates were then washed with DPBS (Dulbecco's Phosphate Buffered Saline) and blotted dry. Any excess liquid was carefully aspirated from the wells. As a control, the small molecule antagonist (27) for inhibiting VLA-4 referred to above was added to control wells in buffer containing 4% DMSO and diluted down the plate, typically in a concentration range of 1000 nM to 0.2 nM. Jurkat Clone E6-1 cells (ATCC) were labeled with 100 μg/mL 6-carboxyfluorescein diacetate, a fluorescent dye, and then activated with RPMI 1640 medium containing 0.5 mM of the divalent cation Mn^2+ and 0.05% bovine serum albumin. It is noted that this activation is needed to achieve maximal binding for the ligand and may simulate the activation of integrins by cytokines and chemokines in vivo. […] To assess VLA-4 inhibition of the VLA-4 targeting lipids (from the examples), Jurkat cells (expressing high levels of VLA-4) were added to the VCAM-1-coated plates to a final concentration of 2×10^5 cells/well in 96-well plates and allowed to incubate with the test lipids (from the examples) for 45 min at 37° C. After removing unbound cells by gently washing the wells with PBS, the fluorescence signal from the bound cells was read on a Tecan Safire2 microplate reader at 450 nm. Points were plotted and the IC50s of each lipid were determined by regression analysis using the linear portion of the concentration-response curve.

T1 sequence (P13612 34-1032): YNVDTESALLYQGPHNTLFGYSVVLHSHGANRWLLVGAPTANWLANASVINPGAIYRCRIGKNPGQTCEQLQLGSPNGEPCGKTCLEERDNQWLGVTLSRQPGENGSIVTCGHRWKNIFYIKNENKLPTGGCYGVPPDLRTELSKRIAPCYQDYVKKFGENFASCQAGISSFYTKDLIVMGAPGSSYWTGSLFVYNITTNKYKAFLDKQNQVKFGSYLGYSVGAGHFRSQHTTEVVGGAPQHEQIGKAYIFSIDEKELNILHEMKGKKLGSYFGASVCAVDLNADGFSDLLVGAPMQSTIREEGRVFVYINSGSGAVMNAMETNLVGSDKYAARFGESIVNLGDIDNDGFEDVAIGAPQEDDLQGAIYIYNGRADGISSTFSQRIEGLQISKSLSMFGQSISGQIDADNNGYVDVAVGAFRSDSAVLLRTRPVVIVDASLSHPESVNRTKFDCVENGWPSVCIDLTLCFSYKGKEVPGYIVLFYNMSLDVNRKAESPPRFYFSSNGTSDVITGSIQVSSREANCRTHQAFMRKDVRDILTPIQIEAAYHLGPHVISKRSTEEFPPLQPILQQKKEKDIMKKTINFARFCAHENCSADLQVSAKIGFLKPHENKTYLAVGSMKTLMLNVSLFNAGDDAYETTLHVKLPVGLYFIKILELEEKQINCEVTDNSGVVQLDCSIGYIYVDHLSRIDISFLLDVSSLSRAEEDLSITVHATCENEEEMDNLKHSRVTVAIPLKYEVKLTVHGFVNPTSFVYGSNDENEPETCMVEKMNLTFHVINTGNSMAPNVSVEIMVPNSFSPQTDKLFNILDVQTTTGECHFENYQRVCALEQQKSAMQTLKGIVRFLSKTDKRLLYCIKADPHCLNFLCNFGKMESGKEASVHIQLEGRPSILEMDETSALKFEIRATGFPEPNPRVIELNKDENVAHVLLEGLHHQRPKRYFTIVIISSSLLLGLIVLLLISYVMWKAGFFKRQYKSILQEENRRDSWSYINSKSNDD
T1 sequence (P05556 21-798): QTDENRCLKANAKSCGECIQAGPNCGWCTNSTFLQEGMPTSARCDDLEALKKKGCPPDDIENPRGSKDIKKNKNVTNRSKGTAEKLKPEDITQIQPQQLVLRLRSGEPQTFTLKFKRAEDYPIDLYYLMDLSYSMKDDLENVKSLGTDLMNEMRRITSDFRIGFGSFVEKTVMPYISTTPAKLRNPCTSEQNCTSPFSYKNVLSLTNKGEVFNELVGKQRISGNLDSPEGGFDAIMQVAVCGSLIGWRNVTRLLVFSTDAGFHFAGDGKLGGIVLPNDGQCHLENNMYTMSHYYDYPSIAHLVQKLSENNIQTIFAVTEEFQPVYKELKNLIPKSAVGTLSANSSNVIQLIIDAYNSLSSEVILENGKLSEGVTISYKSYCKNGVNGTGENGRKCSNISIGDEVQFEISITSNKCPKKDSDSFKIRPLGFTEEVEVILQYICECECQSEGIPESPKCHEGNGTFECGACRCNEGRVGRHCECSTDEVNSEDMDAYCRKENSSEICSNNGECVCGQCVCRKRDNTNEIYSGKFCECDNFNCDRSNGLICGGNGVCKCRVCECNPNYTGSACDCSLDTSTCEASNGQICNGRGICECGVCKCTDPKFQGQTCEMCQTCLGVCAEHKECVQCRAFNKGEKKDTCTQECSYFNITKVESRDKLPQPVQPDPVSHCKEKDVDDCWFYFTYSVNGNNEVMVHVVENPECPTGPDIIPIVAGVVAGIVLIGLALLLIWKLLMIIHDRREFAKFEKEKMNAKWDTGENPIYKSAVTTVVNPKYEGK

Row | IC50 [nM] | Structure (SMILES)
1 | 1000 | CCCCCCCCCCCCCCCCOCC(C[N+](C)(C)CCCNC(=O)CCOCCOCCOCCOCCOCCOCCOCCOCCOCCC(=O)NCCC1(C(=O)N[C@@H](Cc2ccc(NC(=O)c3c(Cl)cccc3Cl)cc2)C(=O)O)CCCC1)OCCCCCCCCCCCCCCCC (stereo partly drawn) [Example 3, [[2,3-bis(hexadecyloxy)propyl][3-[[3-[2-[2-[2-[2-[2-[2-[2-[2-[[3-[[2-[1-[[[(S)-1-carboxy-2-[4-(2,6-dichloro-benzoylamino)phenyl]ethyl]amino]carbonyl]cyclopentyl]ethyl]amino]-3-oxopropyl]oxy]ethoxy]ethoxy]ethoxy]ethoxy]ethoxy]ethoxy]ethoxy]ethoxy]-1-oxopropyl]amino]propyl]dimethylaminium trifluoroacetate]
2 | 133 | CCCCCCCCCCCCCCCCCCOCC(C[N+](C)(C)CCCNC(=O)CCOCCOCCOCCOCCOCCOCCOCCOCCOCCC(=O)NCCC1(C(=O)N[C@@H](Cc2ccc(NC(=O)c3c(Cl)cccc3Cl)cc2)C(=O)O)CCCC1)OCCCCCCCCCCCCCCCCCC (stereo partly drawn) [Example 6, [2,3-bis(octadecyloxy)propyl][3-[[3-[2-[2-[2-[2-[2-[2-[2-[2-[[3-[[2-[1-[[[(S)-1-carboxy-2-[4-(2,6-dichloro-benzoylamino)phenyl]ethyl]amino]carbonyl]cyclopentyl]ethyl]amino]-3-oxopropyl]oxy]ethoxy]ethoxy]ethoxy]ethoxy]ethoxy]ethoxy]ethoxy]ethoxy]-1-oxopropyl]amino]propyl]dimethylaminium bromide]
3 | 587 | CCCCCCCCCCCCOCC(C[N+](C)(C)CCCNC(=O)CCOCCOCCOCCOCCOCCOCCOCCOCCOCCC(=O)NCCC1(C(=O)N[C@@H](Cc2ccc(NC(=O)c3c(Cl)cccc3Cl)cc2)C(=O)O)CCCC1)OCCCCCCCCCCCC (stereo partly drawn) [Example 1, [2,3-bis(dodecyloxy)propyl][3-[[3-[2-[2-[2-[2-[2-[2-[2-[2-[[3-[[2-[1-[[[(S)-1-carboxy-2-[4-(2,6-dichloro-benzoylamino)phenyl]ethyl]amino]carbonyl]cyclopentyl]ethyl]amino]-3-oxopropyl]oxy]ethoxy]ethoxy]ethoxy]ethoxy]ethoxy]ethoxy]ethoxy]ethoxy]-1-oxopropyl]amino]propyl]dimethylaminium trifluoroacetate]
4 | 942 | CCCCCCCCCCCCOCC(C[N+](C)(C)CCCNC(=O)CCC(=O)NCCOCCOCCOCCOCCOCCOCCOCCOCCOCCOCCOCCOCCC(=O)NCCC1(C(=O)N[C@@H](Cc2ccc(NC(=O)c3c(Cl)cccc3Cl)cc2)C(=O)O)CCCC1)OCCCCCCCCCCCC (stereo partly drawn) [Example 2, [2,3-bis(dodecyloxy)propyl][3-[[4-[[2-[2-[2-[2-[2-[2-[2-[2-[2-[2-[2-[2-[[3-[[2-[1-[[[(S)-1-carboxy-2-[4-(2,6-dichloro-benzoylamino)phenyl]ethyl]amino]carbonyl]cyclopentyl]ethyl]amino]-3-oxopropyl]oxy]ethoxy]ethoxy]ethoxy]ethoxy]ethoxy]ethoxy]ethoxy]ethoxy]ethoxy]ethoxy]ethoxy]ethyl]amino]-1-4-dioxobutyl]amino]propyl]dimethylaminium trifluoroacetate]

The remaining lines, values behind:

Row | Structure (SMILES) | IC50 [nM]
5 | CCCCCCCCCCCCCCCCCCCCOCC(C[N+](C)(C)CCCNC(=O)CCOCCOCCOCCOCCOCCOCCOCCOCCOCCC(=O)NCCC1(C(=O)N[C@@H](Cc2ccc(NC(=O)c3c(Cl)cccc3Cl)cc2)C(=O)O)CCCC1)OCCCCCCCCCCCCCCCCCCCC (stereo partly drawn) [Example 7, [2,3-bis(icosanyloxy)propyl][3-[[3-[2-[2-[2-[2-[2-[2-[2-[2-[[3-[[2-[1-[[[(S)-1-carboxy-2-[4-(2,6-dichloro-benzoylamino)phenyl]ethyl]amino]carbonyl]cyclopentyl]ethyl]amino]-3-oxopropyl]oxy]ethoxy]ethoxy]ethoxy]ethoxy]ethoxy]ethoxy]ethoxy]ethoxy]-1-oxopropyl]amino]propyl]dimethylaminium bromide] | 89
6 | CCCCCCCCCCCCCCCCCCCCOCC(CN(C)CCCNC(=O)CCOCCOCCOCCOCCOCCOCCOCCOCCOCCC(=O)NCCC1(C(=O)N[C@@H](Cc2ccc(NC(=O)c3c(Cl)cccc3Cl)cc2)C(=O)O)CCCC1)OCCCCCCCCCCCCCCCCCCCC (stereo partly drawn) [Example 8, (S)-Alpha-[[[1-[2-[[3-[2-[2-[2-[2-[2-[2-[2-[2-[[3-[[3-[[2,3-bis(icosanyloxy)propyl]methylamino]propyl]amino]-3-oxopropyl]oxy]ethoxy]ethoxy]ethoxy]ethoxy]ethoxy]ethoxy]ethoxy]ethoxy]-1-oxoproyl]amino]ethyl]cyclopentyl]carbonyl]amino]-4-(2,6-dichlorobenzoylamino)benzenepropanoic acid] | 1000
7 | CCCCCCCCCCCCCCCCOCC(C[N+](C)(C)CCCNC(=O)CCC(=O)NCCOCCOCCOCCOCCOCCOCCOCCOCCOCCOCCOCCOCCC(=O)NCCC1(C(=O)NC(Cc2ccc(NC(=O)c3c(Cl)cccc3Cl)cc2)C(=O)O)CCCC1)OCCCCCCCCCCCCCCCC [Example 4, [2,3-bis(hexadecyloxy)propyl][3-[[4-[[2-2-[2-[2-[2-[2-[2-[2-[2-[2-[2-[2-[[3-[[2-[1-[[[(S)-1-carboxy-2-[4-(2,6-dichloro-benzoylamino)phenyl]ethyl]amino]carbonyl]cyclopentyl]ethyl]amino]-3-oxopropyl]oxy]ethoxy]ethoxy]ethoxy]ethoxy]ethoxy]ethoxy]ethoxy]ethoxy]ethoxy]ethoxy]ethoxy]ethyl]amino]-1,4-dioxobutyl]amino]propyl]dimethylaminium trifluoroacetate] | 308
8 | CCCCCCCCCCCCCCCCOCC(CN(C)CCCNC(=O)CCC(=O)NCCOCCOCCOCCOCCOCCOCCOCCOCCOCCOCCOCCOCCC(=O)NCCC1(C(=O)N[C@@H](Cc2ccc(NC(=O)c3c(Cl)cccc3Cl)cc2)C(=O)O)CCCC1)OCCCCCCCCCCCCCCCC (stereo partly drawn) [Example 5, (S)-Alpha-[[[1-[2-[[3-[2-[2-[2-[2-[2-[2-[2-[2-[2-[2-[2-[2-[[4-[[3-[[2,3-bis(hexadecyloxy)propyl]methylamino]propyl]amino]-1,4-dioxobutyl]amino]ethoxy]ethoxy]ethoxy]ethoxy]ethoxy]ethoxy]ethoxy]ethoxy]ethoxy]ethoxy]ethoxy]ethoxy]-1-oxoproyl]amino]ethyl]cyclopentyl]carbonyl]amino]-4-(2,6-dichlorobenzoylamino) benzenepropanoic acid] | 6

system: KIF11 mRNA; test: KIF11 mRNA knockdown in MV4-11 cells by LNP-formulated KIF11 siRNA (relative to 18S ribosomal RNA); assay type: cell-based, human; conditions: added with no formulation as a control
Method: FIG. 1. Bar graph illustrating KIF11 mRNA knockdown in MV4-11 cells (relative to 18S ribosomal RNA as a control) with various LNP formulations containing KIF11 siRNA (formulation nos. 54F, 54I, 54L, and 54O).
The human cancer cell line MV4-11 was maintained in media supplemented with 10% heat-inactivated Fetal Bovine Serum (HI-FBS; Gibco/BRL, Gaithersburg, Md.) and 2 mM L-glutamine (Gibco/BRL).
MV4-11 suspension cells in 1 ml of culturing medium were seeded in 24-well plates 24 h before transfection and RNA quantification targeting siRNA were formulated in LNPs and directly added to the medium for transfection. Cells were then collected for RNA quantification.
Sample collection and mRNA purification for in vitro studies were performed as follows. MV4-11 cells were lysed directly on the plate with RNA lysis buffer (Qiagen). Suspension cells were collected into tubes and spun down at 2,000 rpm for 1 min, then the cell pellets were lysed with RNA lysis buffer (Qiagen). […]
Total RNA from all collected samples was purified using Qiagen RNeasy Kit following the manufacturer's protocol. Relative quantification of target mRNA and 18S ribosomal RNA gene expression was carried out with cDNA Reverse Transcription Reagents from Applied Biosystems followed by Taqman Gene Expression Assays (Applied Biosystems) using the manufacturer's protocol. […]

Row | Structure (SMILES) | knockdown of KIF11 expression
9 | Cc1cccc(Cl)c1C(=O)N[C@@H](Cc1ccc(NC(=O)c2c(Cl)cccc2Cl)cc1)C(=O)O [Example 27, (S)-2-(2-Chloro-6-methyl-benzoylamino)-3-[4-(2,6-dichloro-benzoylamino)-phenyl]-propionic acid] | no knockdown
